Laboratory results taken from PubChem BioAssay AID1963985 (Molecular Pharmacology Branch, DTP, NCI, 2024).

Test system: 252836-082-R-J2-PDC tumor spheroids, viability
Assay: Anticancer human tumor 252836-082-R-J2-PDC patient-derived head and neck squamous cell carcinoma cell line growth inhibition [PI3K]
Details: spheroids with HUVEC and MSC; for IC50: curve of first compound; for viability, T/C: stronger effect = lower value; active means viability on the fitted dose curve at most 10% of control; inactive means the rest
How it was run: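 We assembled tumor spheroids that included a stromal compartment of HUVEC and MSCs, then exposed them to targeted agents alone and together with PI3K pathway inhibitors. Concentration series descended by half-log from clinically achievable Cmax levels. Viability served as the endpoint.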

[1] = second compound 0.00316 µM, first compound 0.000316 µM
[2] = second compound 0.00316 µM, first compound 0.001 µM
[3] = second compound 0.00316 µM, first compound 0.00316 µM
[4] = second compound 0.00316 µM, first compound 0.01 µM
[5] = second compound 0.00316 µM, first compound 0.0316 µM
[6] = second compound 0.00316 µM, first compound 0.1 µM
[7] = second compound 0.01 µM, first compound 0.000316 µM
[8] = second compound 0.01 µM, first compound 0.001 µM
[9] = second compound 0.01 µM, first compound 0.00316 µM
[10] = second compound 0.01 µM, first compound 0.01 µM
[11] = second compound 0.01 µM, first compound 0.0316 µM
[12] = second compound 0.01 µM, first compound 0.1 µM
[13] = second compound 0.0316 µM, first compound 0.000316 µM
[14] = second compound 0.0316 µM, first compound 0.001 µM
[15] = second compound 0.0316 µM, first compound 0.00316 µM
[16] = second compound 0.0316 µM, first compound 0.01 µM
[17] = second compound 0.0316 µM, first compound 0.0316 µM
[18] = second compound 0.0316 µM, first compound 0.1 µM
[19] = second compound 0.1 µM, first compound 0.000316 µM
[20] = second compound 0.1 µM, first compound 0.001 µM
[21] = second compound 0.1 µM, first compound 0.00316 µM
[22] = second compound 0.1 µM, first compound 0.01 µM
[23] = second compound 0.1 µM, first compound 0.0316 µM
[24] = second compound 0.1 µM, first compound 0.1 µM
[25] = second compound 0.316 µM, first compound 0.000316 µM
[26] = second compound 0.316 µM, first compound 0.001 µM
[27] = second compound 0.316 µM, first compound 0.00316 µM
[28] = second compound 0.316 µM, first compound 0.01 µM
[29] = second compound 0.316 µM, first compound 0.0316 µM
[30] = second compound 0.316 µM, first compound 0.1 µM
[31] = second compound 1 µM, first compound 0.000316 µM
[32] = second compound 1 µM, first compound 0.001 µM
[33] = second compound 1 µM, first compound 0.00316 µM
[34] = second compound 1 µM, first compound 0.01 µM
[35] = second compound 1 µM, first compound 0.0316 µM
[36] = second compound 1 µM, first compound 0.1 µM
[37] = second compound 0.00316 µM, first compound 0.316 µM
[38] = second compound 0.00316 µM, first compound 1 µM
[39] = second compound 0.00316 µM, first compound 3.16 µM
[40] = second compound 0.00316 µM, first compound 10 µM
[41] = second compound 0.01 µM, first compound 0.316 µM
[42] = second compound 0.01 µM, first compound 1 µM
[43] = second compound 0.01 µM, first compound 3.16 µM
[44] = second compound 0.01 µM, first compound 10 µM
[45] = second compound 0.0316 µM, first compound 0.316 µM
[46] = second compound 0.0316 µM, first compound 1 µM
[47] = second compound 0.0316 µM, first compound 3.16 µM
[48] = second compound 0.0316 µM, first compound 10 µM
[49] = second compound 0.1 µM, first compound 0.316 µM
[50] = second compound 0.1 µM, first compound 1 µM
[51] = second compound 0.1 µM, first compound 3.16 µM
[52] = second compound 0.1 µM, first compound 10 µM
[53] = second compound 0.316 µM, first compound 0.316 µM
[54] = second compound 0.316 µM, first compound 1 µM
[55] = second compound 0.316 µM, first compound 3.16 µM
[56] = second compound 0.316 µM, first compound 10 µM
[57] = second compound 1 µM, first compound 0.316 µM
[58] = second compound 1 µM, first compound 1 µM
[59] = second compound 1 µM, first compound 3.16 µM
[60] = second compound 1 µM, first compound 10 µM
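Further: spheroids exposed to agents for seven days before readout.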
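Wherever viability, T/C is given: percent of vehicle DMSO control viability so 100% = untreated growth.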

CC(=O)c1c(C)c2cnc(Nc3ccc(N4CCNCC4)cn3)nc2n(C2CCCC2)c1=O + COc1c(OCCCN2CCOCC2)ccc2c3n(c(=NC(=O)c4cnc(N)nc4)nc12)CCN3
< 0.316 nM: IC50 (second compound 0.1 µM) | IC50 (second compound 0.316 µM) | IC50 (second compound 1 µM)
active: viability, T/C [31] 4.69% | viability, T/C [32] 5.36% | viability, T/C [33] 5.54% | viability, T/C [34] 5.58% | viability, T/C [35] 6.27% | viability, T/C [36] 4.95%
> 100 nM: IC50 (second compound 0.00316 µM) | IC50 (second compound 0.01 µM) | IC50 (second compound 0.0316 µM)
inactive: viability, T/C [1] 95% | viability, T/C [2] 93.1% | viability, T/C [3] 85.6% | viability, T/C [4] 96.3% | viability, T/C [5] 87.8% | viability, T/C [6] 99% | viability, T/C [7] 84.7% | viability, T/C [8] 81.4% | viability, T/C [9] 78.5% | viability, T/C [10] 84.3% | viability, T/C [11] 81.1% | viability, T/C [12] 83.7% | viability, T/C [13] 69.5% | viability, T/C [14] 60.9% | viability, T/C [15] 66.9% | viability, T/C [16] 56.5% | viability, T/C [17] 64% | viability, T/C [18] 62.6% | viability, T/C [19] 37.1% | viability, T/C [20] 41.2% | viability, T/C [21] 37.8% | viability, T/C [22] 45.5% | viability, T/C [23] 41.7% | viability, T/C [24] 37.5% | viability, T/C [25] 18.2% | viability, T/C [26] 21.1% | viability, T/C [27] 20.6% | viability, T/C [28] 18.7% | viability, T/C [29] 21.8% | viability, T/C [30] 16.6%

CC(C)n1nc(-c2ccc3oc(N)nc3c2)c2c(N)ncnc21 + COc1c(OCCCN2CCOCC2)ccc2c3n(c(=NC(=O)c4cnc(N)nc4)nc12)CCN3
inactive: viability, T/C [1] 81.7% | viability, T/C [2] 81.9% | viability, T/C [3] 74.9% | viability, T/C [4] 58.1% | viability, T/C [5] 43.1% | viability, T/C [6] 20.8% | viability, T/C [7] 78.7% | viability, T/C [8] 73.5% | viability, T/C [9] 74.9% | viability, T/C [10] 57.8% | viability, T/C [11] 38.5% | viability, T/C [12] 20.5% | viability, T/C [13] 58.3% | viability, T/C [14] 58.4% | viability, T/C [15] 48.4% | viability, T/C [16] 42.1% | viability, T/C [17] 31.4% | viability, T/C [18] 15.3% | viability, T/C [19] 30.4% | viability, T/C [20] 34.8% | viability, T/C [21] 33.1% | viability, T/C [22] 28.1% | viability, T/C [23] 18.3% | viability, T/C [24] 9.85% | viability, T/C [25] 17.8% | viability, T/C [26] 18.9% | viability, T/C [27] 12.1% | viability, T/C [28] 9.92%
active: viability, T/C [29] 8.75% | viability, T/C [30] 2.66% | viability, T/C [31] 4.87% | viability, T/C [32] 3.85% | viability, T/C [33] 4.39% | viability, T/C [34] 3.18% | viability, T/C [35] 3.53% | viability, T/C [36] 2.06%
19 nM: IC50 (second compound 0.00316 µM)
16.5 nM: IC50 (second compound 0.01 µM)
3.33 nM: IC50 (second compound 0.0316 µM)
< 0.316 nM: IC50 (second compound 0.1 µM) | IC50 (second compound 0.316 µM) | IC50 (second compound 1 µM)

CCCS(=O)(=O)Nc1ccc(F)c(C(=O)c2c[nH]c3ncc(-c4ccc(Cl)cc4)cc23)c1F + COc1c(OCCCN2CCOCC2)ccc2c3n(c(=NC(=O)c4cnc(N)nc4)nc12)CCN3
inactive: viability, T/C [5] 88.2% | viability, T/C [6] 92.8% | viability, T/C [37] 80.6% | viability, T/C [38] 90.1% | viability, T/C [39] 67.2% | viability, T/C [11] 71.8% | viability, T/C [12] 73.6% | viability, T/C [41] 72.9% | viability, T/C [42] 87.5% | viability, T/C [43] 79.7% | viability, T/C [17] 64.8% | viability, T/C [18] 57.6% | viability, T/C [45] 67.9% | viability, T/C [46] 59% | viability, T/C [47] 49.8% | viability, T/C [48] 9.78% | viability, T/C [23] 32.3% | viability, T/C [24] 39.8% | viability, T/C [49] 43.3% | viability, T/C [50] 43.3% | viability, T/C [51] 31.7% | viability, T/C [29] 16.1% | viability, T/C [30] 15.8% | viability, T/C [53] 16.7% | viability, T/C [54] 19.4% | viability, T/C [55] 18.1% | viability, T/C [56] 1.83%
active: viability, T/C [40] 7.48% | viability, T/C [44] 8.12% | viability, T/C [52] 4.74% | viability, T/C [35] 5.69% | viability, T/C [36] 5.15% | viability, T/C [57] 7.11% | viability, T/C [58] 7.02% | viability, T/C [59] 5.99% | viability, T/C [60] 1.31%
< 31.6 nM: IC50 (second compound 0.1 µM) | IC50 (second compound 0.316 µM) | IC50 (second compound 1 µM)
4970 nM: IC50 (second compound 0.01 µM)
2960 nM: IC50 (second compound 0.0316 µM)
4400 nM: IC50 (second compound 0.00316 µM)

CNC(=O)c1ccc(N2C(=S)N(c3ccc(C#N)c(C(F)(F)F)c3)C(=O)C2(C)C)cc1F + COc1c(OCCCN2CCOCC2)ccc2c3n(c(=NC(=O)c4cnc(N)nc4)nc12)CCN3
< 31.6 nM: IC50 (second compound 0.1 µM) | IC50 (second compound 0.316 µM) | IC50 (second compound 1 µM)
> 10000 nM: IC50 (second compound 0.00316 µM) | IC50 (second compound 0.01 µM) | IC50 (second compound 0.0316 µM)
active: viability, T/C [35] 4.5% | viability, T/C [36] 3.94% | viability, T/C [57] 5.87% | viability, T/C [58] 4.83% | viability, T/C [59] 4.62% | viability, T/C [60] 4.12%
inactive: viability, T/C [5] 97.9% | viability, T/C [6] 85.8% | viability, T/C [37] 87.3% | viability, T/C [38] 96.5% | viability, T/C [39] 96.2% | viability, T/C [40] 77.7% | viability, T/C [11] 73% | viability, T/C [12] 64.5% | viability, T/C [41] 79.5% | viability, T/C [42] 71.9% | viability, T/C [43] 76.1% | viability, T/C [44] 80% | viability, T/C [17] 60.7% | viability, T/C [18] 60.1% | viability, T/C [45] 49.9% | viability, T/C [46] 60.9% | viability, T/C [47] 62.8% | viability, T/C [48] 54.3% | viability, T/C [23] 36% | viability, T/C [24] 38% | viability, T/C [49] 36% | viability, T/C [50] 36.3% | viability, T/C [51] 33.5% | viability, T/C [52] 34.5% | viability, T/C [29] 19% | viability, T/C [30] 17.2% | viability, T/C [53] 17.1% | viability, T/C [54] 17.3% | viability, T/C [55] 17.4% | viability, T/C [56] 13.4%
